Legend:
[1] = test system: R6/2 mice; settings: behavioural symptoms such as rotarod performance improved; cited from earlier work
[2] = molecular target: PDE10A (Homo sapiens, UniProt Q9Y233); assay: PDE10A inhibition, [3H]cAMP hydrolysis scintillation proximity assay; format: biochemical
Chain of PDE10A (Q9Y233 whole entry): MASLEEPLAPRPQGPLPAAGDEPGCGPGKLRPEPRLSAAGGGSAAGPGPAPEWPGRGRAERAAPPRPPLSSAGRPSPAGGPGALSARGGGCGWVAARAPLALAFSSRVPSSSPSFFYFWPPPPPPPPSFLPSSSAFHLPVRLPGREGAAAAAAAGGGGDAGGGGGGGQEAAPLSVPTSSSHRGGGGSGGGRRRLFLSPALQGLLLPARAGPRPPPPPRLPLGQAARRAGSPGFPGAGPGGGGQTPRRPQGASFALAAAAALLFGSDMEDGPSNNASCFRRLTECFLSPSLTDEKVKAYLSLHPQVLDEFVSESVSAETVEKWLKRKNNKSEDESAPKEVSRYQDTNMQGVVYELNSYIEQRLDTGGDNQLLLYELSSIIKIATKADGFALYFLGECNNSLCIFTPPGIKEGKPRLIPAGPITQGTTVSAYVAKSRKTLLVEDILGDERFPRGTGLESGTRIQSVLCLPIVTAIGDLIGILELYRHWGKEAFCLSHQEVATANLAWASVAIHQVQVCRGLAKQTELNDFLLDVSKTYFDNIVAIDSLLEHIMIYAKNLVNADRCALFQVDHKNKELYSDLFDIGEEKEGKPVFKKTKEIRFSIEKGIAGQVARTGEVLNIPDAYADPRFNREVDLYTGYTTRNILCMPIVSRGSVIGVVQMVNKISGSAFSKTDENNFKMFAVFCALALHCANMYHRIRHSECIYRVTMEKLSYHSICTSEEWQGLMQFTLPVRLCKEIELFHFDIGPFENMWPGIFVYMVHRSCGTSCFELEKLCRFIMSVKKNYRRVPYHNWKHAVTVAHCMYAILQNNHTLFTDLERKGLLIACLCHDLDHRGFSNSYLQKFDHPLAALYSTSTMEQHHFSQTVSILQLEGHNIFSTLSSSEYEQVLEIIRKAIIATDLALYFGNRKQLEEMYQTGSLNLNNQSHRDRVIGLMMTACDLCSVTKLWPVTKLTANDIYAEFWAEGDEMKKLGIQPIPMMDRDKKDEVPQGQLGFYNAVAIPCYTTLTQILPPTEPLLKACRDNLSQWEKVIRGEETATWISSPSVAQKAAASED

For FC(F)(F)Cn1cc(-c2ccncc2)c(-c2ccc(OCc3ccc4ccccc4n3)cc2)n1 [TP-10, 2-[4-[pyridin-4-yl-1-(2,2,2-trifluoroethyl)-1H-pyrazol-3-yl]-phenoxymethyl]-quinoline], which “neuropathology and symptoms in R6/2 mice” value [1] is on record?
The value was “ameliorated”.

With COc1cc(CSc2ccc(-c3nn(C)cc3-c3ccncc3)cc2)nc2ccccc12 [Compound 10g] as the compound, how does the “fold less potent for PDE10A than 10b” value ([2]; IC50 versus the corresponding O-atom bridged analogue 10b) read?
Its value is 600 fold.

For COc1cccc2ccc(COc3ccc(-c4c(-c5ccncc5)cnn4C)cc3)nc12 [Compound 11f], which “fold higher PDE10A IC50 value than 11e” value ([2]; IC50 of 8-methoxy 11f versus 7-methoxy 11e) is on record?
Its value is 2 fold.

Source: publication PMC3625062 (MedChemComm, 2012)
